# Laboratory results from ChEMBL document CHEMBL5154917 (J Med Chem, 2022).
# Activity calls are given as the source filed them. The calls are words filed in the database; no cut-off is given here.
# Assays:
# HT-29 = assay: Antiproliferative activity against human HT-29 cells assessed as cell growth inhibition incubated for 72 hrs by CCK-8 assay; details: HT-29, 72 h
# MKN-1 [1] = assay: Antiproliferative activity against human MKN-1 cells assessed as cell growth inhibition incubated for 72 hrs by CCK-8 assay; details: MKN-1, 72 h
# [2] = target: T1, Serine/threonine-protein kinase RIO1 (Homo sapiens) (UniProt Q9BRS2); assay: Binding affinity to wild-type human full length RIOK1 (M1 to K568 residues) expressed in bacterial expression system assessed as residual activity at 1 uM by KINOMEscan assay relative to control
# T1 sequence (whole entry): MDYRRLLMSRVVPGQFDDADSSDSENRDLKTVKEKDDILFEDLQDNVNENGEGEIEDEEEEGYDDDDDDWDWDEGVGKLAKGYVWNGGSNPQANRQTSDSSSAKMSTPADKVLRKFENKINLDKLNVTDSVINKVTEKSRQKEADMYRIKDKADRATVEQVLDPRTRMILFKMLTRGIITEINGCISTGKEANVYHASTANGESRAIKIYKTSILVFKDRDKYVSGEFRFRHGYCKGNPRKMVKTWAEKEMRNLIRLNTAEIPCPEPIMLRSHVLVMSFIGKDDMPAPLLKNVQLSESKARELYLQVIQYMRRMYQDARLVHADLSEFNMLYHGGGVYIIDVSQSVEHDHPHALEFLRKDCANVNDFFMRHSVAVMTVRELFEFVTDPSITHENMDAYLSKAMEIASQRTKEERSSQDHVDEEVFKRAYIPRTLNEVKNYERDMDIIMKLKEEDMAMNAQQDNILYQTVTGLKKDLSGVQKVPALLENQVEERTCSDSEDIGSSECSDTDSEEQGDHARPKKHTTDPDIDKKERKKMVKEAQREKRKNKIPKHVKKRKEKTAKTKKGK
# [3] = target: T2, Serine/threonine-protein kinase RIO3 (Homo sapiens) (UniProt O14730); assay: Binding affinity to wild-type human full length RIOK3 (M1 to E519 residues) expressed in bacterial expression system assessed as residual activity at 1 uM by KINOMEscan assay relative to control
# T2 sequence (whole entry): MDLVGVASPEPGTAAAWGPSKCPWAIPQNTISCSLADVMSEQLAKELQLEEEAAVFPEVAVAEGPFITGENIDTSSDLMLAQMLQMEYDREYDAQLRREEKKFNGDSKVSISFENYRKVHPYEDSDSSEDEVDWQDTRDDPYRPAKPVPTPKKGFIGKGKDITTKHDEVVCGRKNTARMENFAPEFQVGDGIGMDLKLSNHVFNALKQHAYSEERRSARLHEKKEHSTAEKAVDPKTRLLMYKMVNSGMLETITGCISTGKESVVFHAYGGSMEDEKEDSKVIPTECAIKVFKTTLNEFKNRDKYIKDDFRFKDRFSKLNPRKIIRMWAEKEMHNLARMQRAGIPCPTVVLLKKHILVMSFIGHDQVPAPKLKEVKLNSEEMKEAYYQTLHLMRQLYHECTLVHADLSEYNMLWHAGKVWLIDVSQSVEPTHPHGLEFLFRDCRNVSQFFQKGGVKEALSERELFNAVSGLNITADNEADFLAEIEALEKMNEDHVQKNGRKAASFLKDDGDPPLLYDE
# Homo sapiens [4] = organism: Homo sapiens; assay: Binding affinity to human partial length FLT3 ITD D835V mutant expressed in mammalian expression system assessed as residual activity at 1 uM by KINOMEscan assay relative to control
# Homo sapiens [5] = organism: Homo sapiens; assay: Binding affinity to human partial length FLT3 ITD F691L mutant expressed in mammalian expression system assessed as residual activity at 1 uM by KINOMEscan assay relative to control
# [6] = tested on: T3, Receptor-type tyrosine-protein kinase FLT3 (Homo sapiens), P36888 [D835V]; assay: Binding affinity to human partial length FLT3 D835V mutant (V592 to Y969 residues) expressed in mammalian expression system assessed as residual activity at 1 uM by KINOMEscan assay relative to control
# T3 sequence (whole entry): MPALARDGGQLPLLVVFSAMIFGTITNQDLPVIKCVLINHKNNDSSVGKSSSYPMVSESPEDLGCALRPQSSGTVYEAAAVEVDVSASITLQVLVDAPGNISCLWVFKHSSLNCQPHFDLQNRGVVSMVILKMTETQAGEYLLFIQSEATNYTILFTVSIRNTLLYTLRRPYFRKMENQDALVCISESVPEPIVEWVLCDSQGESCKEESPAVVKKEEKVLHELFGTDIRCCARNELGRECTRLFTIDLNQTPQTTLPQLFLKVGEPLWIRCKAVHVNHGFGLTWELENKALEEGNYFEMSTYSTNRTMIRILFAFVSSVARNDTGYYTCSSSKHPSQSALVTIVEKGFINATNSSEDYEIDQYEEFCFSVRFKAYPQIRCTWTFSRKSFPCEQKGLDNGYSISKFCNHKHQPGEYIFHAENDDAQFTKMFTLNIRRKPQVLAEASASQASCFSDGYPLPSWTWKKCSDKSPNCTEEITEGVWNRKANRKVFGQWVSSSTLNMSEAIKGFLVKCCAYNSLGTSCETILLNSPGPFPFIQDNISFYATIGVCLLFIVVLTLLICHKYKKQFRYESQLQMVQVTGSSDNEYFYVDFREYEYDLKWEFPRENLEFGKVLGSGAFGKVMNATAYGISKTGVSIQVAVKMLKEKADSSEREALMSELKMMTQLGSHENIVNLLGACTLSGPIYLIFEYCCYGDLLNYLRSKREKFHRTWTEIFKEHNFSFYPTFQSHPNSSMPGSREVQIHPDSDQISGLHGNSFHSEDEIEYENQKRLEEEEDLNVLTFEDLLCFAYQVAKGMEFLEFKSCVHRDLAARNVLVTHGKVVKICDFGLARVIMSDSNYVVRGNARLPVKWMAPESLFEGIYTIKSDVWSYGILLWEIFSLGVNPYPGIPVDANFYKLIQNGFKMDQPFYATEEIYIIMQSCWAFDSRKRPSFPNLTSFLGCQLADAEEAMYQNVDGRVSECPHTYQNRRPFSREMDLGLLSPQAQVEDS
# [7] = target: T1, Serine/threonine-protein kinase RIO1 (Homo sapiens); assay: Binding affinity to RIOK1 in human MKN-1 cells assessed as negative shift in melting temperature at 5 uM incubated for 3 hrs followed by heat treatment at 52 to 62 degC for 3 mins by CETSA; assay type: cell-based; details: time 183.0 min
# [8] = target: T2, Serine/threonine-protein kinase RIO3 (Homo sapiens); assay: Binding affinity to RIOK3 in human MKN-1 cells assessed as negative shift in melting temperature at 5 uM incubated for 3 hrs followed by heat treatment at 52 to 62 degC for 3 mins by CETSA; assay type: cell-based; details: time 183.0 min
# [9] = Aqueous solubility of the compound; assay type: physicochemical; details: buffer
# [10] = Oral bioavailability in Sprague-Dawley rat; assay type: ADME, organism-based; details: in vivo
# [11] = Cmax in Sprague-Dawley rat administered orally; assay type: ADME; parameters: route po; details: in vivo, po
# MKN-1 [12] = assay: Antitumor activity against human MKN-1 cells xenografted in CB17-SCID mouse assessed as tumor growth inhibition at 25 mg/kg, ip qd for 18 consecutive days and measured once every 2 days relative to control; assay type: functional; details: MKN-1, 432 h, time 18 day, read-out: TGI
# [13] = Toxicity in CB17-SCID mouse xenografted with human MKN-1 cells assessed as mortality at 25 mg/kg, ip qd for 18 consecutive days; assay type: organism-based; details: in vivo, 432 h, time 18 day
# [14] = Solubility of compound in organic solvents; assay type: physicochemical
# [15] = Toxicity in CB17-SCID mouse xenografted with human MKN-1 cells assessed as side effects at 25 mg/kg, ip qd for 18 consecutive days; assay type: organism-based; details: in vivo, 432 h, time 18 day
IC50 (HT-29) [µM],IC50 (MKN-1 [1]) [µM],Structure (SMILES),Activity [2] [%],Activity [3] [%],Activity (Homo sapiens [4]) [%],Activity (Homo sapiens [5]) [%],Activity [6] [%],Activity [7],Activity [8],solubility [9],bioavailability [10] [%],Cmax [11] [ng/mL],inhibition in vivo at 25 mg/kg (MKN-1 [12]) [%],Activity [13],solubility [14],Activity [15]
> 8,> 8,COc1ccc(-c2ccc3[nH]c(=O)c4nnn(-c5ccccc5)c4c3c2)cn1,–,–,–,–,–,–,–,–,–,–,–,–,–,–
> 8,> 8,Cc1ccnc(NC(=O)Cc2ccc3ccccc3c2)c1,–,–,–,–,–,–,–,–,–,–,–,–,–,–

Structure (SMILES),IC50 (HT-29) [µM],IC50 (MKN-1 [1]) [µM],Activity [2] [%],Activity [3] [%],Activity (Homo sapiens [4]) [%],Activity (Homo sapiens [5]) [%],Activity [6] [%],Activity [7],Activity [8],solubility [9],bioavailability [10] [%],Cmax [11] [ng/mL],inhibition in vivo at 25 mg/kg (MKN-1 [12]) [%],Activity [13],solubility [14],Activity [15]
COc1ccc(-c2ccc3[nH]c(=O)c4nnn(-c5ccc(N6CCNCC6)c(C(F)(F)F)c5)c4c3c2)cn1,0.38,0.61,100,87,4,3.6,28,Active,Active,Insoluble,3.06,13,30.9,Non-Toxic,Insoluble,Non-Toxic
